From article PMC12408343, “Deep learning reveals antibiotics in the archaeal proteome” (Nature Microbiology, 2025)
In brackets after ≈: the same amount, converted by molar mass. Bridge positions count the residues as written; N and C are the ends. Square brackets hold non-standard residues; d marks the D form. Peptide text beside a SMILES is read from it. * marks the point of attachment. X1 = CC[C@H](C)CCCCC(=O)*; Dab = NCC[C@H](N)C(=O)O

Columns and labels:
[1] = tested on: E. faecalis ATCC 700802 (VRE); test: Broth microdilution MIC; format: cell-based, Enterococcus faecalis; settings: vancomycin-resistant strain, LB, 1–64 μmol l^−1 two-fold dilutions, 24 h, 37 °C, OD600, mode of three independent replicates
Method: (§1) Briefly, 10^5 bacterial cells were incubated with serially diluted EPs (0–64 μmol l^−1) at 37 °C. Bacterial growth was assessed by measuring the optical density at 600 nm in a microplate reader at 1 day post-treatment. […] Secondary structure fractions were calculated using the BeStSel server. fH and fβ stand for helical and β fractions, respectively.

A. baumannii ATCC 19606 [2] = test: microbe, parasite or virus in culture; settings: for MIC A. baumannii ATCC 19606 (−): broth microdilution, LB, 1–64 μmol l^−1 two-fold dilutions, 24 h, 37 °C, OD600, mode of three independent replicates
Method: as §1

S. aureus ATCC 12600 = test: microbe, parasite or virus in culture
Method: as §1

K. pneumoniae ATCC 13883 = test: microbe, parasite or virus in culture; settings: for MIC K. pneumoniae ATCC 13883 (−): broth microdilution, LB, 1–64 μmol l^−1 two-fold dilutions, 24 h, 37 °C, OD600, mode of three independent replicates
Method: as §1

[3] = tested on: E. faecium ATCC 700221 (VRE); test: microbe, parasite or virus in culture; settings: 24 h
Method: as §1

P. aeruginosa PAO1 = test: microbe, parasite or virus in culture; settings: for MIC P. aeruginosa PAO1 (−): broth microdilution, LB, 1–64 μmol l^−1 two-fold dilutions, 24 h, 37 °C, OD600, mode of three independent replicates
Method: as §1

[4] = tested on: E. coli AIC222 (colistin-resistant, CRE); test: microbe, parasite or virus in culture; settings: 24 h; for MIC E. coli AIC222 – CRE (−): colistin-resistant strain, broth microdilution, LB, 1–64 μmol l^−1 two-fold dilutions, 37 °C, OD600, mode of three independent replicates
Method: as §1

P. aeruginosa PA14 = test: microbe, parasite or virus in culture; settings: for MIC P. aeruginosa PA14 (−): broth microdilution, LB, 1–64 μmol l^−1 two-fold dilutions, 24 h, 37 °C, OD600, mode of three independent replicates
Method: as §1

E. coli AIC221 = test: microbe, parasite or virus in culture; settings: for MIC E. coli AIC221 (−): broth microdilution, LB, 1–64 μmol l^−1 two-fold dilutions, 24 h, 37 °C, OD600, mode of three independent replicates
Method: as §1

E. coli ATCC 11775 = test: microbe, parasite or virus in culture; settings: for MIC E. coli ATCC 11775 (−): broth microdilution, LB, 1–64 μmol l^−1 two-fold dilutions, 24 h, 37 °C, OD600, mode of three independent replicates
Method: as §1

A. baumannii ATCC 19606 [5] = test: Neutropenic deep thigh infection mouse model; format: in vivo; settings: neutropenic female CD-1 mice, n = 6, single intraperitoneal dose 2 h after infection
Method: The limit of detection (LOD) for the CFU quantification is log10CFU = 2. Statistical significance in panels b and d was determined using one-way analysis of variance followed by Dunnett’s test; P values are shown in the graphs. In the violin, the centre line represents […], the box limits the 1st and 3rd quartiles, and the whiskers (minimum and maximum) represent 1.5× the interquartile range. The solid line inside each box represents […] value obtained for each group. Panels a and c created with BioRender.com. Source data
Next, we assessed the efficacy of the same lead archaeasins (archaeasin-2, archaeasin-17 and archaeasin-73) in a murine deep thigh infection model (Fig. 5c), which is widely used to assess the antibiotic potential of compounds. Mice were administered 2 rounds of cyclophosphamide treatment for immunosuppression before the intramuscular infection with 1 × 10^5 cells in 100 μl of A. baumannii. A single dose of each archaeasin (at their MIC) was delivered intraperitoneally (Fig. 5c). […] Four days post-treatment, the bacterial counts remained stable for all peptide treatment conditions and the treatments with polymyxin B and levofloxacin, while the untreated control increased by two orders of magnitude. […]

[6] = tested on: S. aureus ATCC BAA-1556 (MRSA); test: microbe, parasite or virus in culture; settings: 24 h
Method: as §1

Structure (SMILES)	MIC A. baumannii ATCC 19606 (−) (A. baumannii ATCC 19606 [2])	MIC K. pneumoniae ATCC 13883 (−) (K. pneumoniae ATCC 13883)	MIC P. aeruginosa PAO1 (−) (P. aeruginosa PAO1)	MIC E. coli AIC222 – CRE (−) [4]	MIC P. aeruginosa PA14 (−) (P. aeruginosa PA14)	MIC E. coli AIC221 (−) (E. coli AIC221)	MIC E. coli ATCC 11775 (−) (E. coli ATCC 11775)	reduction of bacterial load, deep thigh infection, four days post-treatment (A. baumannii ATCC 19606 [5])	other results
C[C@H]1COc2c(N3CCN(C)CC3)c(F)cc3c(=O)c(C(=O)O)cn1c23 [Levofloxacin, reference compound]	1 µM (≈ 0.361 µg/mL)	1 µM (≈ 0.361 µg/mL)	4 µM (≈ 1.45 µg/mL)	0.25 µM (≈ 0.0903 µg/mL)	0.5 µM (≈ 0.181 µg/mL)	0.125 µM (≈ 0.0452 µg/mL)	0.125 µM (≈ 0.0452 µg/mL)	three	MIC ([1]; Enterococcus faecalis): 2 µM (≈ 0.723 µg/mL); MIC E. faecalis ATCC 700802 – VRE (+) [1]: 2 µM (≈ 0.723 µg/mL); MIC (A. baumannii ATCC 19606 [2]; Acinetobacter baumannii, ATCC19606, 24 h, read-out: MIC A. baumannii ATCC 19606 (−)): 1 µM (≈ 0.361 µg/mL); MIC (S. aureus ATCC 12600; Staphylococcus aureus, ATCC12600, 24 h, read-out: MIC S. aureus ATCC 12600 (+)): 2 µM (≈ 0.723 µg/mL); MIC S. aureus ATCC 12600 (+) (S. aureus ATCC 12600; broth microdilution, LB, 1–64 μmol l^−1 two-fold dilutions, 24 h, 37 °C, OD600, mode of three independent replicates): 2 µM (≈ 0.723 µg/mL); MIC (K. pneumoniae ATCC 13883; Klebsiella pneumoniae, ATCC13883, 24 h, read-out: MIC K. pneumoniae ATCC 13883 (−)): 1 µM (≈ 0.361 µg/mL); MIC ([3]; Enterococcus faecium, ATCC700221|VRE, read-out: MIC E. faecium ATCC 700221 – VRE (+)): 16 µM (≈ 5.78 µg/mL); MIC E. faecium ATCC 700221 – VRE (+) ([3]; vancomycin-resistant strain, broth microdilution, LB, 1–64 μmol l^−1 two-fold dilutions, 37 °C, OD600, mode of three independent replicates): 16 µM (≈ 5.78 µg/mL); MIC (P. aeruginosa PAO1; Pseudomonas aeruginosa, PAO1, 24 h, read-out: MIC P. aeruginosa PAO1 (−)): 4 µM (≈ 1.45 µg/mL); MIC ([4]; Escherichia coli, read-out: MIC E. coli AIC222 – CRE (−)): 0.25 µM (≈ 0.0903 µg/mL); MIC (P. aeruginosa PA14; Pseudomonas aeruginosa, PA14, 24 h, read-out: MIC P. aeruginosa PA14 (−)): 0.5 µM (≈ 0.181 µg/mL); MIC (E. coli AIC221; Escherichia coli, AIC221, 24 h, read-out: MIC E. coli AIC221 (−)): 0.125 µM (≈ 0.0452 µg/mL); MIC (E. coli ATCC 11775; Escherichia coli, ATCC11775, 24 h, read-out: MIC E. coli ATCC 11775 (−)): 0.125 µM (≈ 0.0452 µg/mL); MIC ([6]; Staphylococcus aureus, ATCCBAA1556|MRSA, read-out: MIC S. aureus ATCC BAA-1556 – MRSA (+)): 32 µM (≈ 11.6 µg/mL); MIC S. aureus ATCC BAA-1556 – MRSA (+) ([6]; methicillin-resistant strain, broth microdilution, LB, 1–64 μmol l^−1 two-fold dilutions, 37 °C, OD600, mode of three independent replicates): 32 µM (≈ 11.6 µg/mL)
CC[C@H](C)CCCCC(=O)N[C@@H](CCN)C(=O)N[C@H](C(=O)N[C@@H](CCN)C(=O)N[C@H]1CCNC(=O)[C@H]([C@@H](C)O)NC(=O)[C@H](CCN)NC(=O)[C@H](CCN)NC(=O)[C@H](CC(C)C)NC(=O)[C@@H](Cc2ccccc2)NC(=O)[C@H](CCN)NC1=O)[C@@H](C)O [Polymyxin B, reference compound] (X1-[Dab]T[Dab][Dab][Dab][dF]L[Dab][Dab]T; lactam 4-C (inferred); N-terminus assumed)	0.5 µM (≈ 0.602 µg/mL)	8 µM (≈ 9.63 µg/mL)	4 µM (≈ 4.81 µg/mL)	8 µM (≈ 9.63 µg/mL)	8 µM (≈ 9.63 µg/mL)	0.25 µM (≈ 0.301 µg/mL)	0.25 µM (≈ 0.301 µg/mL)	three	
